The values that follow come from patent US10695371B2, “Modification of extracorporeal photopherisis technology with porphyrin precursors” (Oslo Universitetssykehus HF, priority 2014, dated 2020).

For data set [1], the system named is human T-cell lymphoma cell line, Jurkat. Kind of data set: In vitro cell proliferation assay (MTS) after HAL and/or 8-MOP plus light. The format is cell-based. Conditions: for Dark toxicity (MTS assay): no light. The protocol:
The human T-cell lymphoma cell line, Jurkat (ATCC number: TIB-152TM), growing in suspensions at passages 4-24 was used in the study. […] For subcultivation, the cells were diluted to a density of 3×10^5 cells/ml every second day. […] The cells were collected from the cultivation flasks, centrifuged at 1400 rpm for 5 min and diluted in the serum-free RPMI 1640 medium to a density of 37.5×10^5 cells/ml. Eighty microliters of cell suspension were portioned into 96 well plates. […] For the UV-A irradiation of samples, a home-made UV-A lamp (Sorensen UV-A lamp, Phillips Th […]/09) emitting light mainly in the region 340-410 nm was used (FIG. 1). For the blue light illumination of samples, the light from a bank of four fluorescent tubes (model 3026, Applied Photophysics, London, United Kingdom) emitting light mainly in the region 410-500 nm with a maximum around 440 nm was used (FIG. 1). […] Twenty four hours after irradiation, 20 μl of MTS (Promega Corporation, Madison, Wis.) was added to each well. Absorbance at 492 nm was measured after one hour incubation at 37° C. by means of a well plate reader (Multiskan Ex, Labsystems, Finland).
Background: Tetrazolium assays rely on reduction of a dye to a coloured formazan, in cell work by metabolically active cells.

The subject of data set [2] is Jurkat cells. In words: In vitro long term cell survival assay in methylcellulose-based semisolid medium. Also on record: species or system human. The protocol:
The cells were collected from the cultivation flasks, centrifuged at 1400 rpm for 5 min and diluted in the serum-free RPMI 1640 medium to a density of 37.5×10^5 cells/ml. Eighty microliters of cell suspension were portioned into 96 well plates. […] For the UV-A irradiation of samples, a home-made UV-A lamp (Sorensen UV-A lamp, Phillips Th […]/09) emitting light mainly in the region 340-410 nm was used (FIG. 1). For the blue light illumination of samples, the light from a bank of four fluorescent tubes (model 3026, Applied Photophysics, London, United Kingdom) emitting light mainly in the region 410-500 nm with a maximum around 440 nm was used (FIG. 1). Methylcellulose-based medium human MethoCult® with recombinant cytokines, (H4034, StemCell Technologies, France) was used for survival assay. […] The samples were treated according to the manufacturer's instructions and suspensions were transferred into 35 mm Petri dishes. They were incubated at 37° C. in a humidified incubator with 5% CO2.

Data set [3] relates to Jurkat cells. Kind of data set: Assessment of apoptotic cells by fluorescence microscopy (Hoechst 33342 / PI). The format is cell-based, human. How it is done:
The cells were collected from the cultivation flasks, centrifuged at 1400 rpm for 5 min and diluted in the serum-free RPMI 1640 medium to a density of 37.5×10^5 cells/ml. Eighty microliters of cell suspension were portioned into 96 well plates. […] For the UV-A irradiation of samples, a home-made UV-A lamp (Sorensen UV-A lamp, Phillips Th […]/09) emitting light mainly in the region 340-410 nm was used (FIG. 1). For the blue light illumination of samples, the light from a bank of four fluorescent tubes (model 3026, Applied Photophysics, London, United Kingdom) emitting light mainly in the region 410-500 nm with a maximum around 440 nm was used (FIG. 1). Apoptotic cells were identified by fluorescence microscopy based on nuclear morphology after staining with 4.0 μg/mI Hoechst 33342 (Sigma, St. Louis, Mo.) at 37° C. for 10 min. This assay was verified in our previous experiments. […] For PI fluorescence detection, the filter combination consisted of a 540/25 nm excitation filter, a 565 nm beam splitter, and a 605/55 nm band-pass emission filter. Fluorescence images were captured by a highly light sensitive thermo-electrically cooled charge-coupled device camera […] (Hamamatsu, Japan).

Data set [4] concerns Jurkat human T-cell lymphoma cells. Kind of data set: ALA/UVA killing of Jurkat cells (PI staining). The format is cell-based. Conditions: 1 mM ALA for 1 hour, 10% foetal bovine serum, then UVA light exposure. The protocol: Optimization of experimental conditions for ALA-ECP was performed in Jurkat cells, varying ALA concentration (1 to 5 mM) and treatment time (1 to 4 hours) in the presence of 10% foetal bovine serum. The cells were then exposed to UVA for 10 min using an UV-A lamp with almost identical emission spectra to those of the UV-A lamp used in the existing commercial Therakos photopheresis system. The cell survival after the ALA/UVA treatment was measured by fluorescence microscopy with propidium iodide (PI) staining.

The subject of data set [5] is Proliferative (transformed or activated) T-cells. In words: ALA-induced PpIX production in proliferative versus resting T-cells. The format is cell-based.
In data set [6] the test system is CD4+ T lymphocytes collected from a GvHD patient. In words: Ex vivo ALA-ECP killing of patient CD4+ T lymphocytes (flow cytometry). The format is cell-based, human. Conditions: particularly at a low light dose, 5-min light illumination. The protocol:
(§1) A suitable dose and incubation time of ALA was used in leukocyte samples collected from ECP patients. The dark toxicity of ALA at the concentration in question was evaluated, followed by the ALA/UVA-mediated killing efficiency before studies on the mechanism of its action (apoptosis/necrosis). The lymphocytes from patients were incubated with ALA under the optimized experimental conditions before exposure to the UVA lamp in the Therakos Photopheresis System at the same light dose as used in the ECP treatment. The cell survival of ALA dark toxicity, ALA/UVA-mediated killing efficiency and apoptosis/necrosis were measured with flow cytometry using combined labelling of CD4^+ or CD8^+ with Annexin V/PI staining.
(§2) The killing effects of 5-ALA (a porphyrin precursor) plus the UVA light irradiation on CD4^+/CD8^+ T lymphocytes collected from a Graft versus Host Disease (GvHD) patient who went to a standard photopheresis treatment was evaluated. The cells were exposed to ALA+UVA in the standard photopheresis machine, and percentage survival evaluated at various timepoints between 1 h and 20 h. The 8-MOP plus UVA used for the standard photopheresis was also included for comparison. The cell survival was measured with flow cytometry using a combined staining of CD4/CD8 antibody, Annexin-V and eFluor450.
In general terms: Flow cytometry measures light scatter and fluorescence of single cells or particles in a stream.

In data set [7] the test system is CD8+ T lymphocytes collected from a GvHD patient. Kind of data set: Ex vivo ALA-ECP killing of patient CD8+ T lymphocytes (flow cytometry). The format is cell-based, human. The note with it: particularly at a low light dose, 5-min light illumination. How it is done: as §1, §2
Data set [8] has as its system human leukocytes from GvHD or CTLC patients. In words: 5-ALA dark toxicity on human leukocytes. In kind it is cell-based. The note with it: 10 mM 5-ALA, 17-24 hours, no light.
Experimental: The general safety of 5-ALA in absence of light-mediated activation (dark toxicity) was next evaluated. Blood samples from 10 GvHD or CTLC patients were treated with 10 mM 5-ALA at 37° C. in a 5% CO2 humidified incubator overnight (17-24 hours). Buffy coat samples from patients were directly harvested from the Therakos Photopheresis System during the standard photopheresis treatment. The cells incubated with the culture medium containing no 5-ALA were also included as a control in all individuals. The leukocytes were then labelled with antibodies for flow cytometry analysis of various subpopulations. The antibodies used were: CD45 PerCP-Cyanine5.5 for leukocytes, CD4 FITC for T helper cells, CD8 FITC for T cytotoxic cells and CD19 FITC for B-cells. The cells were also labelled with Fixable Viability Dye eFluor 450 for dead cells and Annexin V for apoptotic/dead cells. The different subpopulations of leukocytes were gated out and analyzed for cell viability. The cells that were negative for both the Fixable Viability Dye eFluor 450 and Annexin V were considered as viable cells.
The subject of data set [9] is humans. Conditions: oral ALA; normally resolves after 48 hours; cited from earlier work.
Data set [10] concerns mice. Conditions: cited from earlier work.
In data set [11] the test system is rats. The note with it: cited from earlier work.

Entries after “also recorded” stand apart in the source; their conditions may differ.

As for `COc1c2occc2cc2ccc(=O)oc12` [8-MOP, 8-methoxypsoralen], the “ability to sensitise the cells to photoinactivation when UV-A lamp spectrum shifted by few nm” value in data set [1] (1.00 μM 8-MOP) was “significantly increased”. The “Effect of presence of 8-MOP on cell proliferation during HAL-based PDT with blue light” value in [1] (1.00 μM 8-MOP, blue light) is listed as “did not affect cell proliferation”. Also, in data set [1] (8-MOP up to 1.00 μM), the “Dark toxicity (MTS assay)” value is recorded as “no indication for dark toxicities”. The “cell proliferation measured by MTS assay with increasing 8-MOP concentration” value in [1] (UV-A 5 and 10 min, absence of HAL) was “decreasing cell proliferation”. In data set [2] (1.00 μM MOP/10 min UV-A), the “Number of colonies (high cell density areas formed in semisolid medium 2 weeks after treatment)” value stood at 0.8 ± 2.0 and the “number of experiments when colonies were formed/total number of experiments” value is recorded as 1/6. Besides, the “mode of cell death, twenty hours following treatment” value in [3] (1.00 μM 8-MOP followed by UV-A) is listed as “almost all the cells seemed to die by apoptosis”.

As to `NCC(=O)CCC(=O)O` [ALA, 5-aminolevulinic acid], the Jurkat cells killed result in [4] was “More than 95%”. For the same molecule, the “ALA-induced PpIX production, proliferative versus normal resting T-cells” value in data set [5] is “about 15 fold”. In addition, the “killing of CD4+ T-cells, ALA plus UVA versus 8-MOP plus UVA” value in data set [6] is given as “much more effectively than 8-MOP plus UVA”. The “killing of CD8+ T-cells, ALA plus UVA versus 8-MOP plus UVA” value in data set [7] is given as “much more effectively than 8-MOP plus UVA”. For the same molecule, the “dark cytotoxic effect on leukocytes” value in data set [8] is “no significant dark cytotoxic effect”. Also, in data set [9], the “most common side effects” value was “nausea, vomiting and a transient rise in liver enzymes”. Further, the LD50 in data set [10] (mice, single dose of oral or intraperitoneal administration) is recorded as 2,500 mg/kg body weight; in data set [11] (rats, single dose of oral or intraperitoneal administration), 2,500 mg/kg body weight. In addition, the “toxic effects after single intravenous injection” value in data set [10] (mouse, in vivo, iv, 500 mg/kg) was “No observable toxic effects”; in data set [11] (rat, in vivo, iv, 250 mg/kg), “No observable toxic effects”.

For the molecule `CCCCCCOC(=O)CCC(=O)CN` [HAL, hexyl 5-amino-4-oxopentanoate], the “Cell proliferation, evaluated by MTS assay” value in data set [1] (HAL 4 h, 10 or 20 s blue light or 5 or 10 min UV-A) is on record as “decrease in a concentration-dependent manner”. Besides, the “Dark toxicity (MTS assay)” value in [1] (HAL up to 11.00 μM) is “no indication for dark toxicities”. In data set [1] (UV-A 5 or 10 min), the “HAL concentration sufficient to decrease cell proliferation to minimum after light exposure” value was 5.00 µM. Also, the “Number of colonies (high cell density areas formed in semisolid medium 2 weeks after treatment)” value in data set [2] (5.00 μM HAL/10 min UV-A) is reported as 0; in [2] (7.40 μM HAL/10 s blue light) it was 4.5 ± 5.6. The “number of experiments when colonies were formed/total number of experiments” value in data set [2] (7.40 μM HAL/10 s blue light) is 4/6. Moreover, the “Cell appearance 20 hours after treatment” value is “mostly apoptotic + some alive, or; also recorded: mostly necrotic + some apoptotic*” in [3] (1.55 μM HAL, 10 min UV-A, sample to sample variations); “apoptotic + alive (similar” in data set [3] (5.00 μM HAL, 10 s UV-A); “mostly apoptotic + some alive” in data set [3] (5.00 μM HAL, 10 s blue light); “only necrotic, no apoptotic” in data set [3] (5.00 μM HAL, 10 min UV-A). For the same molecule, in [3] (5.00 μM HAL and 10 min UV-A irradiation), the “apoptotic bodies, twenty hours following treatment” value was “no apoptotic bodies could be seen”.
